Measurements published in patent US20240116985A1, “STAPLED PEPTIDES AND METHODS THEREOF” (priority 2020, published 2024).
Converted amounts (≈) assume the structure as drawn. Like-named read-outs stand apart in the source and are kept apart here.

Key:
[1] = molecular target: T1, full-length beta-Catenin (Uniprot ID P35222) (Homo sapiens, UniProt P35222); test: Fluorescence polarization IC50 (beta-catenin / 5FAM-TCF4 10-53 competition); assay type: binding
T1 construct: 10 nM full-length beta-Catenin (Uniprot ID P35222)
T1 sequence (P35222 1-781): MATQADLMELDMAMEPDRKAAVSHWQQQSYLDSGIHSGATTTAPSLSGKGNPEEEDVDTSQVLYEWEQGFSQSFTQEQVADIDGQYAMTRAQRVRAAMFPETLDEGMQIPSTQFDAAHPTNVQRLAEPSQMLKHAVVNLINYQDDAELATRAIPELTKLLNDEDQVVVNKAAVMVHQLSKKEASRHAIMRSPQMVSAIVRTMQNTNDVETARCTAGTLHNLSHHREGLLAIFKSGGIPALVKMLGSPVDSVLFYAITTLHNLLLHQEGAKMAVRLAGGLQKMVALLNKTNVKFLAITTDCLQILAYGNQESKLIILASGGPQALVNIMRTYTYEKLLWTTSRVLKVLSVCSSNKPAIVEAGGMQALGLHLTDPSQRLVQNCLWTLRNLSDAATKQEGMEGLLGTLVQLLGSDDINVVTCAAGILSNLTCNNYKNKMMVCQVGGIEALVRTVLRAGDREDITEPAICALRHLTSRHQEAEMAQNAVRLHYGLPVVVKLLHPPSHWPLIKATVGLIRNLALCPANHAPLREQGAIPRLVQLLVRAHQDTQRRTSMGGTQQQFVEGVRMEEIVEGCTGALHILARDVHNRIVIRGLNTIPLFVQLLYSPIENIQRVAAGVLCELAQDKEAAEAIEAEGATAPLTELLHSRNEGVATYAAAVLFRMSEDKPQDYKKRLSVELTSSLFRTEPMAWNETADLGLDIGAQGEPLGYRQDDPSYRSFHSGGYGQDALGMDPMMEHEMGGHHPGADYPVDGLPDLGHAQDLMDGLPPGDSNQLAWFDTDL

CHI Log D procedure = assay type: physicochemical; conditions: for chromatographic logD: pH 7.4, CHI Log D; for CHI Log D: pH 7.4
Solubility in PBS = assay type: physicochemical
Summary of the method: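 PBS sample ultracentrifuged; supernatant run on HPLC vs. 50 μM peptide in DMSO standard. Solubility = (PBS peak area / DMSO peak area) × 50 uM.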

[2] = Table E2-1, read-out: beta-Catenin FP IC50
[3] = fluorescence polarization, beta-catenin, read-out: FP EC50

Row | IC50 [1, 2] [µM] | chromatographic logD (CHI Log D procedure) | Solubility (Solubility in PBS; Solubility (uM)) [µM] | IC50 [1, 3] [µM] | CHI Log D (CHI Log D procedure) | Solubility (Solubility in PBS) [µM] | SMILES
1 | 5 | 1.69 | 49 (≈ 87.3 µg/mL) | – | – | – | CC(=O)N1CCC[C@]12CC=CCCCC1(CCCC=CCCCCC[C@@](C)(C(=O)N[C@@H](Cc3ccccc3)C(=O)N[C@@H](Cc3c[nH]c4ccccc34)C(=O)N[C@@H](CCC(N)=O)C(N)=O)NC(=O)[C@H](C(C)C)NC(=O)[C@H](Cc3ccccc3)NC(=O)[C@H](C)NC(=O)[C@H](C)NC(=O)[C@H](CCC(=O)O)NC(=O)[C@H](CC(=O)O)NC1=O)NC(=O)[C@H](C)NC(=O)[C@H](CC(=O)O)NC2=O (stereo partly drawn) [I-132, Ac-PL3-Asp-Ala-B5-Asp-Glu-Ala-Ala-Phe-Val-S7-Phe-Trp-Gln-NH2]
2 | 2.27 | 2.19 | 48 (≈ 86.7 µg/mL) | – | – | – | CC(=O)N1CCC[C@]12CC=CCCCC1(CCCC=CCCCCCC[C@@](C)(C(=O)N[C@@H](Cc3ccccc3)C(=O)N[C@@H](Cc3ccc4ccccc4c3)C(=O)N[C@@H](CCC(N)=O)C(N)=O)NC(=O)[C@H](C(C)C)NC(=O)[C@H](Cc3ccccc3)NC(=O)[C@H](C)NC(=O)[C@H](C)NC(=O)[C@H](CCC(=O)O)NC(=O)[C@H](CC(=O)O)NC1=O)NC(=O)[C@H](C)NC(=O)[C@H](CC(=O)O)NC2=O (stereo partly drawn) [I-140, Ac-PL3-Asp-Ala-B5-Asp-Glu-Ala-Ala-Phe-Val-S8-Phe-2NapA-Gln-NH2]
3 | 3.76 | – | – | 3.76 | 2.032 | 36 (≈ 64.8 µg/mL) | CC(=O)N1CCC[C@]12CC=CCCCC1(CCCC=CCCCCCC[C@@](C)(C(=O)N[C@@H](Cc3ccccc3)C(=O)N[C@@H](Cc3c[nH]c4ccccc34)C(=O)N[C@@H](CCC(N)=O)C(N)=O)NC(=O)[C@H](C(C)C)NC(=O)[C@H](Cc3cccc(F)c3)NC(=O)[C@H](C)NC(=O)[C@H](C)NC(=O)[C@H](CC(=O)O)NC(=O)[C@H](CC(=O)O)NC1=O)NC(=O)[C@H](C)NC(=O)[C@H](CC(=O)O)NC2=O (stereo partly drawn) [I-265, Ac-PL3-Asp-Ala-B5-Asp-Asp-Ala-Ala-3FF-Val-S8-Phe-Trp-Gln-NH2]
4 | 5 | 2.05 | 37 (≈ 67.2 µg/mL) | – | – | – | CC(=O)N1CCC[C@]12CC=CCCCC1(CCCC=CCCCCCC[C@@](C)(C(=O)N[C@@H](Cc3ccccc3)C(=O)N[C@@H](Cc3c[nH]c4ccccc34)C(=O)N[C@@H](CCC(N)=O)C(N)=O)NC(=O)[C@H](C(C)C)NC(=O)[C@H](Cc3ccc(F)c(F)c3)NC(=O)[C@H](C)NC(=O)[C@H](C)NC(=O)[C@H](CC(=O)O)NC(=O)[C@H](CC(=O)O)NC1=O)NC(=O)[C@H](C)NC(=O)[C@H](CC(=O)O)NC2=O (stereo partly drawn) [I-267, Ac-PL3-Asp-Ala-B5-Asp-Asp-Ala-Ala-34FF-Val-S8-Phe-Trp-Gln-NH2]
5 | 5 | 2.44 | – | – | – | 10 (≈ 18.1 µg/mL) | CC(=O)N1CCC[C@]12CC=CCCCC1(CCCC=CCCCCCC[C@@](C)(C(=O)N[C@@H](Cc3ccccc3)C(=O)N[C@@H](Cc3c[nH]c4ccccc34)C(=O)N[C@@H](CCC(N)=O)C(N)=O)NC(=O)[C@H](C(C)C)NC(=O)[C@H](Cc3ccccc3)NC(=O)[C@H](C)NC(=O)[C@H](C)NC(=O)[C@H](Cc3cccnc3)NC(=O)[C@H](CC(=O)O)NC1=O)NC(=O)[C@H](C)NC(=O)[C@H](CC(=O)O)NC2=O (stereo partly drawn) [I-271, Ac-PL3-Asp-Ala-B5-Asp-3PyrA-Ala-Ala-Phe-Val-S8-Phe-Trp-Gln-NH2]
6 | 3.98 | – | – | 3.98 | 2.348 | 10 (≈ 18 µg/mL) | CC(=O)N1CCC[C@]12CC=CCCCC1(CCCC=CCCCCCC[C@@](C)(C(=O)N[C@@H](Cc3ccccc3)C(=O)N[C@@H](Cc3c[nH]c4ccccc34)C(=O)N[C@@H](CCC(N)=O)C(N)=O)NC(=O)[C@H](C(C)C)NC(=O)[C@H](Cc3ccccc3)NC(=O)[C@H](C)NC(=O)[C@H](C)NC(=O)[C@H](Cc3c[nH]cn3)NC(=O)[C@H](CC(=O)O)NC1=O)NC(=O)[C@H](C)NC(=O)[C@H](CC(=O)O)NC2=O (stereo partly drawn) [I-305, Ac-PL3-Asp-Ala-B5-Asp-His-Ala-Ala-Phe-Val-S8-Phe-Trp-Gln-NH2]
7 | 1.75 | 1.97 | 34 (≈ 60.8 µg/mL) | – | – | – | CC(=O)N1CCC[C@]12CC=CCCCC1(CCCC=CCCCCCC[C@@](C)(C(=O)N[C@@H](Cc3ccccc3)C(=O)N[C@@H](Cc3c[nH]c4ccccc34)C(=O)N[C@@H](CCC(N)=O)C(N)=O)NC(=O)[C@H](C(C)C)NC(=O)[C@H](Cc3ccsc3)NC(=O)[C@H](C)NC(=O)[C@H](C)NC(=O)[C@H](CC(=O)O)NC(=O)[C@H](CC(=O)O)NC1=O)NC(=O)[C@H](C)NC(=O)[C@H](CC(=O)O)NC2=O (stereo partly drawn) [I-326, Ac-PL3-Asp-Ala-B5-Asp-Asp-Ala-Ala-3Thi-Val-S8-Phe-Trp-Gln-NH2]
8 | 4.72 | – | – | 4.72 | 1.958 | 43 (≈ 76.2 µg/mL) | CC(=O)N1CCC[C@]12CC=CCCCC1(CCCC=CCCCCCC[C@@](C)(C(=O)N[C@@H](Cc3ccccc3)C(=O)N[C@@H](Cc3c[nH]c4ccccc34)C(=O)N[C@@H](CCC(N)=O)C(N)=O)NC(=O)[C@H](C(C)C)NC(=O)[C@H](Cc3ccco3)NC(=O)[C@H](C)NC(=O)[C@H](C)NC(=O)[C@H](CC(=O)O)NC(=O)[C@H](CC(=O)O)NC1=O)NC(=O)[C@H](C)NC(=O)[C@H](CC(=O)O)NC2=O (stereo partly drawn) [I-327, Ac-PL3-Asp-Ala-B5-Asp-Asp-Ala-Ala-2FurA-Val-S8-Phe-Trp-Gln-NH2]
9 | 1.91 | – | – | 1.91 | 1.983 | 44 (≈ 77.9 µg/mL) | CC(=O)N1CCC[C@]12CC=CCCCC1(CCCC=CCCCCCC[C@@](C)(C(=O)N[C@@H](Cc3ccccc3)C(=O)N[C@@H](Cc3c[nH]c4ccccc34)C(=O)N[C@@H](CCC(N)=O)C(N)=O)NC(=O)[C@H](C(C)C)NC(=O)[C@H](Cc3ccco3)NC(=O)[C@H](C)NC(=O)[C@H](C)NC(=O)[C@H](CC(=O)O)NC(=O)[C@H](CC(=O)O)NC1=O)NC(=O)[C@H](C)NC(=O)[C@H](CC(=O)O)NC2=O (stereo partly drawn) [I-328, Ac-PL3-Asp-Ala-B5-Asp-Asp-Ala-Ala-2FurA-Val-S8-Phe-Trp-Gln-NH2]
10 | 0.153 | 1.74 | 48 (≈ 88.4 µg/mL) | – | – | – | CC(=O)N1CCC[C@]12CC=CCCCC1(CCCC=CCCCCCC[C@@](C)(C(=O)N[C@@H](Cc3ccccc3C(N)=O)C(=O)N[C@@H](Cc3csc4ccccc34)C(=O)N[C@@H](CCC(N)=O)C(N)=O)NC(=O)[C@H](C(C)C)NC(=O)[C@H](Cc3ccccc3)NC(=O)[C@H](C)NC(=O)[C@H](C)NC(=O)[C@H](CC(=O)O)NC(=O)[C@H](CC(=O)O)NC1=O)NC(=O)[C@H](C)NC(=O)[C@H](CC(=O)O)NC2=O (stereo partly drawn) [I-336, Ac-PL3-Asp-Ala-B5-Asp-Asp-Ala-Ala-Phe-Val-S8-2CBMF-BztA-Gln-NH2]
11 | 2 | 1.73 | 38 (≈ 68.9 µg/mL) | – | – | – | CC(=O)N1CCC[C@]12CC=CCCCC1(CCCC=CCCCCCC[C@@](C)(C(=O)N[C@@H](Cc3ccc(O)cc3)C(=O)N[C@@H](Cc3csc4ccccc34)C(=O)N[C@@H](CCC(N)=O)C(N)=O)NC(=O)[C@H](C(C)C)NC(=O)[C@H](Cc3ccccc3)NC(=O)[C@H](C)NC(=O)[C@H](C)NC(=O)[C@H](CC(=O)O)NC(=O)[C@H](CC(=O)O)NC1=O)NC(=O)[C@H](C)NC(=O)[C@H](CC(=O)O)NC2=O (stereo partly drawn) [I-341, Ac-PL3-Asp-Ala-B5-Asp-Asp-Ala-Ala-Phe-Val-S8-Tyr-BztA-Gln-NH2]
12 | 0.0585 | 2.07 | – | – | – | 50 (≈ 90 µg/mL) | CC(=O)N1CCC[C@]12CC=CCCCC1(CCCC=CCCCCCC[C@@](C)(C(=O)N[C@@H](Cc3ccccc3)C(=O)N[C@@H](Cc3csc4ccccc34)C(=O)N[C@@H](CCC(N)=O)C(N)=O)NC(=O)[C@H]([C@@H](C)O)NC(=O)[C@H](Cc3ccccc3)NC(=O)[C@H](C)NC(=O)[C@H](C)NC(=O)[C@H](CC(=O)O)NC(=O)[C@H](CC(=O)O)NC1=O)NC(=O)[C@H](C)NC(=O)[C@H](CC(=O)O)NC2=O (stereo partly drawn) [I-342, Ac-PL3-Asp-Ala-B5-Asp-Asp-Ala-Ala-Phe-Thr-S8-Phe-BztA-Gln-NH2]
13 | 0.172 | – | – | 0.172 | 1.931 | 50 (≈ 90.7 µg/mL) | CC(=O)N1CCC[C@]12CC=CCCCC1(CCCC=CCCCCCC[C@@](C)(C(=O)N[C@@H](Cc3ccccc3)C(=O)N[C@@H](Cc3csc4ccccc34)C(=O)N[C@@H](CCC(N)=O)C(N)=O)NC(=O)[C@H](CC(N)=O)NC(=O)[C@H](Cc3ccccc3)NC(=O)[C@H](C)NC(=O)[C@H](C)NC(=O)[C@H](CC(=O)O)NC(=O)[C@H](CC(=O)O)NC1=O)NC(=O)[C@H](C)NC(=O)[C@H](CC(=O)O)NC2=O (stereo partly drawn) [I-343, Ac-PL3-Asp-Ala-B5-Asp-Asp-Ala-Ala-Phe-Asn-S8-Phe-BztA-Gln-NH2]
